Publication PMC10043345, “Discovery of BAR502, as potent steroidal antagonist of leukemia inhibitory factor receptor for the treatment of pancreatic adenocarcinoma” (Frontiers in Oncology, 2023)

Columns and labels:
FXR = biological target: T1, FXR (Homo sapiens, UniProt Q96RI1); test: FXR transactivation (FXR/RXR, hsp27 IR1-luciferase) in HepG2 cells; type: cell-based
T1 construct: expressed in transfected cells; host or cells: HepG2
T1 sequence (Q96RI1 1-486): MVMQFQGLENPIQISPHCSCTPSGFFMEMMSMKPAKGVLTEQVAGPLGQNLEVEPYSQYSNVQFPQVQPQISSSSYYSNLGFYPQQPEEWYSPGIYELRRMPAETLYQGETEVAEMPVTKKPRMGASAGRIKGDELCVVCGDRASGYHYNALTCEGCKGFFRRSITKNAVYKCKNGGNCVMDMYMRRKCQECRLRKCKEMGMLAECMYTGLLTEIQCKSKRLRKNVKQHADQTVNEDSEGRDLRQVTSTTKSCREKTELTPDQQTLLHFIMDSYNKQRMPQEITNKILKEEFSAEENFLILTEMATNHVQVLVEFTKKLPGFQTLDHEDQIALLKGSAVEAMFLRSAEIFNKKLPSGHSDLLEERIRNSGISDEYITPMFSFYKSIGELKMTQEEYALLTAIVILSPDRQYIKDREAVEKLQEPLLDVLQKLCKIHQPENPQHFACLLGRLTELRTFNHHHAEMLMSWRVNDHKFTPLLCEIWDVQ
T1 sequence (P19793 1-462 partner): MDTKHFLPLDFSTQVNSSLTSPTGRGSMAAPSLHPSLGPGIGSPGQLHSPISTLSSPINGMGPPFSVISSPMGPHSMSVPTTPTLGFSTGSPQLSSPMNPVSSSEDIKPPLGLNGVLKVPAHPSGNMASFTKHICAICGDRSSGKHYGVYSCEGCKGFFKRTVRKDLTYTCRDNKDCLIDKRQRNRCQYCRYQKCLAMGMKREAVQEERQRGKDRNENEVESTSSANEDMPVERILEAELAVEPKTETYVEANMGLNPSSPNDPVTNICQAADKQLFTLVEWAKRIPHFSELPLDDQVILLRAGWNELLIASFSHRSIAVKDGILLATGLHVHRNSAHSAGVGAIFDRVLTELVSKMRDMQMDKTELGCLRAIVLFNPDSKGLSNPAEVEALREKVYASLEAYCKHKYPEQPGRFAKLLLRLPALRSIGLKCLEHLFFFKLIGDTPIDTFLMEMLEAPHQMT
Description: On day 0, HepG2 were seeded at 7.5 × 10^4 cells/well in a 24-well plate and maintained at 37°C and 5% CO2 in E-MEM supplemented with 10% FBS, 1% glutamine, and 1% penicillin/streptomycin. On day 1, cells were transiently transfected with the reporter plasmid pGL4.47[luc2P/SIE/Hygro] (200 ng) (CAT#: E4041 Promega, Madison, WI, USA), a vector encoding the hLIFR (CAT# RC226327) (100 ng) and CD130 (IL6ST) (100 ng) (CAT#: RC215123, OriGene Technologies, Inc. Rockville, MD, USA), and finally a vector encoding the human RENILLA luciferase gene (pGL4.70) (100 ng) (Promega, Madison, WI, USA). On day 2, cells were exposed to the cytokine LIF (10 ng/mL) alone or in combination with BAR502 (from 0.1 to 20 μM). […] For FXR mediated transactivation, HepG2 cells were plated at 7.5 × 10^4 cells/well in a 24 well plate. Cells were transfected with 200 ng of the reporter vector p(hsp27)-TK-LUC containing a FXR response element (IR1) cloned from the promoter of heat shock protein 27 (hsp27), 100 ng of pSG5-FXR, 100 ng of pSG5-RXR, and 100 ng of pGL4.70 (Promega), a vector encoding the human Renilla gene. To perform STAT3 transactivation, HepG2 were seeded at 7.5× 10^4 cells/well in a 24-well plate. On the day-1, cells were transiently transfected with 200 ng of the reporter plasmid pGL4.47[luc2P/SIE/Hygro] […] Luminescence was measured using a Glomax 20/20 luminometer (Promega, Madison, WI, USA). […]

MIA PaCa-2 cells = test: MTS cell proliferation assay; type: cell-based, human
Description: The cell viability assay was done using the CellTiter 96 Aqueous One Solution Cell Proliferation Assay (Promega, Milano, Italy), a colorimetric method for accessing the number of viable cells in proliferation as described previously ([13]). MIA-PaCa 2 cells were seeded in DMEM complete medium at 36 *10^3 cells/100 uL well into 96-well tissue culture plate. After 24 h, cells were serum starved for 24 h and then were primed with the LIFR major ligand, LIF (10 ng/ml) alone or in combination with BAR502 (5,10 and 20 μM) or only with vehicle. In another experimental setting, MIA-PaCa 2 cells were triggered with PDL103 (10 μM) alone, LIF (10 ng/ml) alone or plus PDL103 or BAR502 (10 μM) or both. In a different setting cell were exposed to an antagonist of the Farnesoid X receptor (FXR), 3-(naphthalen-2-yl)-5-(piperidin-4-yl)-1,2,4-oxadiazole (GP7) (10 µM) ([54]), LIF (10 ng/ml) alone or in combination with GP7 or BAR502 or both. Then cell proliferation assessed as mentioned above. Absorbance was measured using a 96 well reader spectrophotometer (490 nm). In these experiments each experimental setting was replicated ten folds. For analysis the background readings with the medium alone, were subtracted from the samples read-outs.

| Compound | EC50 (FXR; transactivation, agonism, read-out: FXR EC50 Transact) [µM] | effect on LIF-induced proliferation (MTS) (MIA PaCa-2 cells; LIF 10 ng/mL + BAR502 5, 10, 20 µM, 24 h, serum free) | IC50 (FXR; read-out: HepG2 FXR/RXR Antagonism IC50) [µM] | effect of PDL103 co-treatment on BAR502 action on LIF/LIFR induced proliferation and EMT (MIA PaCa-2 cells; PDL103 10 μM + BAR502 10 μM + LIF 10 ng/ml) |
| --- | --- | --- | --- | --- |
| CC[C@H]1[C@@H](O)C2C3CC[C@H]([C@H](C)CCO)[C@@]3(C)CCC2[C@@]2(C)CC[C@@H](O)C[C@@H]12 (stereo partly shown) [BAR502] | 3 ± 1 | reversed the LIF-proliferative effect in a concentration-dependent manner | – | – |
| OCc1ccc(-c2ccc(OCc3cc(-c4c(Cl)cccc4Cl)no3)cc2)cc1 [PDL103, (4’-((3-(2,6-dichlorophenyl)isoxazol-5-yl)methoxy)-[1,1’-biphenyl]-4-yl)methanol] | – | – | 10 | failed to reverse the effect of BAR502 |
